The values below are quoted from earlier work in patent publication US20250101519A1, “USE OF HYPOXIA-INDUCIBLE FACTOR 1 ALPHA AS MARKER IN DEPRESSION RECURRENCE DIAGNOSIS” (NINGBO UNIVERSITY, priority 2022, published 2025).

Structures are written as SMILES.

For data set [1] the following is noted: in mice; other references report various values.
The conditions of data set [2]: in humans.

For the molecule `CNCCC(Oc1ccc(C(F)(F)F)cc1)c1ccccc1` (centres unmarked) [fluoxetine], the clearance half-life in data set [1] is 9 h. Moreover, the metabolic clearance half-life in data set [2] is 4 to 6 days.
